Test system: MV-4-11 cells
Test: Gene expression microarray analysis (Affymetrix PrimeView) and GSEA
Assay type: cell-based, human
Parameters: RFU PODN (11730768_x_at) / Fold change /veh PODN (11730768_x_at) / RFU LINC00158 (11744669_a_at) / Fold change /veh LINC00158 (11744669_a_at) / RFU DUSP10 (11751237_a_at) / Fold change /veh DUSP10 (11751237_a_at) / RFU ID3 (11757404_x_at) / Fold change /veh ID3 (11757404_x_at) / RFU PLEKHG5 (11737974_s_at) / Fold change /veh PLEKHG5 (11737974_s_at) / RFU LRRC4B (11730491_at) / Fold change /veh LRRC4B (11730491_at) / RFU GIMAP4 (11747438_a_at) / Fold change /veh GIMAP4 (11747438_a_at) / RFU KRT8 (11758183_x_at) / Fold change /veh KRT8 (11758183_x_at) / RFU CNN1 (11734310_a_at) / Fold change /veh CNN1 (11734310_a_at) / RFU VPS37D (11726825_at) / Fold change /veh VPS37D (11726825_at) / RFU C10orf10 (11716522_x_at) / Fold change /veh C10orf10 (11716522_x_at) / RFU KIR2DL2 /// KIR2DL4 /// KIR2DL5A /// KIR2DL5B /// KIR2DS1 /// KIR2DS2 /// KIR2DS3 /// KIR2DS4 /// KIR3DL3 /// KIR3DL3 /// KIR3DS1 (11738374_at) / Fold change /veh KIR2DL2 /// KIR2DL4 /// KIR2DL5A /// KIR2DL5B /// KIR2DS1 /// KIR2DS2 /// KIR2DS3 /// KIR2DS4 /// KIR3DL3 /// KIR3DL3 /// KIR3DS1 (11738374_at) / RFU C1QL1 (11718748_at) / Fold change /veh C1QL1 (11718748_at) / RFU TMPRSS4 (11747572_a_at) / Fold change /veh TMPRSS4 (11747572_a_at) / RFU HAMP (11756126_x_at) / Fold change /veh HAMP (11756126_x_at) / RFU RNFT2 (11725882_a_at) / Fold change /veh RNFT2 (11725882_a_at) / RFU NR4A2 (11747474_a_at) / Fold change /veh NR4A2 (11747474_a_at) / RFU ABCC12 (11746883_a_at) / Fold change /veh ABCC12 (11746883_a_at) / RFU TMEM136 (11760407_x_at) / Fold change /veh TMEM136 (11760407_x_at) / RFU CLDN22 /// WWC2 (11732394_at) / Fold change /veh CLDN22 /// WWC2 (11732394_at) / RFU HLA-DPB1 (11760878_x_at) / Fold change /veh HLA-DPB1 (11760878_x_at) / RFU SPINT1 (11716480_a_at) / Fold change /veh SPINT1 (11716480_a_at) / RFU GAP43 (11754022_s_at) / Fold change /veh GAP43 (11754022_s_at) / RFU A4GNT (11735810_at) / Fold change /veh A4GNT (11735810_at) / RFU PRB3 (11715151_x_at) / Fold change /veh PRB3 (11715151_x_at) / RFU TUBB4B (11761932_at) / Fold change /veh TUBB4B (11761932_at) / RFU CAPN14 (11732068_a_at) / Fold change /veh CAPN14 (11732068_a_at) / RFU TMCC2 (11721928_a_at) / Fold change /veh TMCC2 (11721928_a_at) / RFU IRGQ (11745062_a_at) / Fold change /veh IRGQ (11745062_a_at) / RFU FAM174B (11720279_a_at) / Fold change /veh FAM174B (11720279_a_at) / RFU TMPRSS4 (11748680_a_at) / Fold change /veh TMPRSS4 (11748680_a_at) / RFU FAM212B (11763350_a_at) / Fold change /veh FAM212B (11763350_a_at) / RFU PLEKHG5 (11743358_a_at) / Fold change /veh PLEKHG5 (11743358_a_at) / RFU ZSCAN30 (11745921_a_at) / Fold change /veh ZSCAN30 (11745921_a_at) / RFU CMKLR1 (11741424_a_at) / Fold change /veh CMKLR1 (11741424_a_at) / RFU LOC101060620 /// MAPK8IP1 (11723275_at) / Fold change /veh LOC101060620 /// MAPK8IP1 (11723275_at) / RFU SPTSSB (11747773_x_at) / Fold change /veh SPTSSB (11747773_x_at) / RFU PRSS12 (11739890_at) / Fold change /veh PRSS12 (11739890_at) / RFU BIN1 (11741810_x_at) / Fold change /veh BIN1 (11741810_x_at) / RFU WNT11 (11732464_a_at) / Fold change /veh WNT11 (11732464_a_at) / RFU C10orf10 (11716521_a_at) / Fold change /veh C10orf10 (11716521_a_at) / RFU C5orf56 (11738089_at) / Fold change /veh C5orf56 (11738089_at) / RFU CYB561 (11721691_x_at) / Fold change /veh CYB561 (11721691_x_at) / RFU ANKRD19P (11752326_a_at) / Fold change /veh ANKRD19P (11752326_a_at) / RFU OR2T12 /// OR2T33 /// OR2T8 (11738714_s_at) / Fold change /veh OR2T12 /// OR2T33 /// OR2T8 (11738714_s_at) / RFU VCAN (11748164_a_at) / Fold change /veh VCAN (11748164_a_at) / RFU JSRP1 (11732532_at) / Fold change /veh JSRP1 (11732532_at) / RFU KRTAP10-11 (11738290_x_at) / Fold change /veh KRTAP10-11 (11738290_x_at) / RFU MYO3A (11730013_a_at) / Fold change /veh MYO3A (11730013_a_at) / RFU EBF3 (11725865_a_at) / Fold change /veh EBF3 (11725865_a_at) / RFU CAMK2N1 (11719241_x_at) / Fold change /veh CAMK2N1 (11719241_x_at) / RFU C5orf56 (11738088_a_at) / Fold change /veh C5orf56 (11738088_a_at) / RFU OLFML3 (11715873_a_at) / Fold change /veh OLFML3 (11715873_a_at) / RFU LOC100653217 /// NTM (11731650_a_at) / Fold change /veh LOC100653217 /// NTM (11731650_a_at) / RFU MAPK11 (11762145_a_at) / Fold change /veh MAPK11 (11762145_a_at) / RFU FIZ1 (11724087_x_at) / Fold change /veh FIZ1 (11724087_x_at) / RFU OASL (11726364_x_at) / Fold change /veh OASL (11726364_x_at) / RFU SOX15 (11748057_x_at) / Fold change /veh SOX15 (11748057_x_at) / RFU CD79A (11719716_a_at) / Fold change /veh CD79A (11719716_a_at) / RFU HIST1H1D (11736915_at) / Fold change /veh HIST1H1D (11736915_at) / RFU CASKIN2 (11723855_a_at) / Fold change /veh CASKIN2 (11723855_a_at) / RFU LOC730098 (11760151_x_at) / Fold change /veh LOC730098 (11760151_x_at) / RFU OR4N2 (11742367_at) / Fold change /veh OR4N2 (11742367_at) / RFU PRRT2 (11749266_a_at) / Fold change /veh PRRT2 (11749266_a_at) / RFU SNX32 (11753110_a_at) / Fold change /veh SNX32 (11753110_a_at) / RFU CDHR5 (11726645_a_at) / Fold change /veh CDHR5 (11726645_a_at) / RFU RCAN1 (11760418_a_at) / Fold change /veh RCAN1 (11760418_a_at) / RFU FAM167A (11723789_a_at) / Fold change /veh FAM167A (11723789_a_at) / RFU FAM26E (11764081_at) / Fold change /veh FAM26E (11764081_at) / RFU ISYNA1 (11749810_s_at) / Fold change /veh ISYNA1 (11749810_s_at) / RFU ACY1 (11761880_at) / Fold change /veh ACY1 (11761880_at) / RFU 11764098_at / Fold change /veh 11764098_at / RFU SAMD14 (11745864_x_at) / Fold change /veh SAMD14 (11745864_x_at) / RFU NPB (11741838_a_at) / Fold change /veh NPB (11741838_a_at) / RFU TMPRSS6 (11731388_a_at) / Fold change /veh TMPRSS6 (11731388_a_at) / RFU KRTAP10-2 (11738614_at) / Fold change /veh KRTAP10-2 (11738614_at) / RFU ARHGAP8 /// PRR5-ARHGAP8 (11727945_x_at) / Fold change /veh ARHGAP8 /// PRR5-ARHGAP8 (11727945_x_at) / RFU KRTAP5-7 /// NADSYN1 (11734609_at) / Fold change /veh KRTAP5-7 /// NADSYN1 (11734609_at) / RFU RASL12 (11751679_a_at) / Fold change /veh RASL12 (11751679_a_at) / RFU CDKN2B (11736163_a_at) / Fold change /veh CDKN2B (11736163_a_at) / RFU PRF1 (11729649_at) / Fold change /veh PRF1 (11729649_at) / RFU, ZNF638 /// ZNF638-IT1 / Fold change vs veh, ZNF638 /// ZNF638-IT1 / RFU, PANK3 / Fold change vs veh, PANK3 / RFU, SH3YL1 / Fold change vs veh, SH3YL1 / RFU, ZEB2 / Fold change vs veh, ZEB2 / RFU, NRIP1 / Fold change vs veh, NRIP1 / RFU, PTTG1IP / Fold change vs veh, PTTG1IP / RFU, CAPN2 / Fold change vs veh, CAPN2 / RFU, MED14 / Fold change vs veh, MED14 / RFU, SNORA58 / Fold change vs veh, SNORA58 / RFU, C1orf63 / Fold change vs veh, C1orf63 / RFU, LRRFIP1 / Fold change vs veh, LRRFIP1 / RFU, NDUFAF7 / Fold change vs veh, NDUFAF7 / RFU, SLC12A2 / Fold change vs veh, SLC12A2 / RFU, IBTK / Fold change vs veh, IBTK / RFU, ESF1 / Fold change vs veh, ESF1 / Fold change vs veh, TMEM50B / RFU, TAOK1 / Fold change vs veh, TAOK1 / RFU, ACBD3 / Fold change vs veh, ACBD3 / RFU, TMA16 / Fold change vs veh, TMA16 / RFU, RWDD3 / Fold change vs veh, RWDD3 / RFU, BCAT1 / Fold change vs veh, BCAT1 / RFU, EDEM3 / Fold change vs veh, EDEM3 / RFU, TMEM33 / Fold change vs veh, TMEM33 / RFU, WDR75 / Fold change vs veh, WDR75 / RFU, AHCTF1 / Fold change vs veh, AHCTF1 / RFU, TFRC / Fold change vs veh, TFRC / RFU, ZDHHC17 / Fold change vs veh, ZDHHC17 / RFU, NOM1 / Fold change vs veh, NOM1 / RFU, ARL8B / Fold change vs veh, ARL8B / RFU, ZBTB11 / Fold change vs veh, ZBTB11 / RFU, TAMM41 / Fold change vs veh, TAMM41 / RFU, KIAA1704 /// LOC100996395 / Fold change vs veh, KIAA1704 /// LOC100996395 / RFU, ING1 / Fold change vs veh, ING1 / RFU, TRMT61B / Fold change vs veh, TRMT61B / RFU, FUBP3 / Fold change vs veh, FUBP3 / RFU, TP53 / Fold change vs veh, TP53 / RFU, TNKS2 / Fold change vs veh, TNKS2 / RFU, ZFP14 / Fold change vs veh, ZFP14 / RFU, ACTR2 / Fold change vs veh, ACTR2 / RFU, PPP3R1 / Fold change vs veh, PPP3R1 / RFU, PIK3R1 / Fold change vs veh, PIK3R1 / RFU, HNRNPA1 / Fold change vs veh, HNRNPA1 / RFU, RNF170 / Fold change vs veh, RNF170 / RFU, ZNF28 / Fold change vs veh, ZNF28 / RFU, RNGTT / Fold change vs veh, RNGTT / RFU, OGT / Fold change vs veh, OGT / RFU, BRD1 / Fold change vs veh, BRD1 / RFU, MARS / Fold change vs veh, MARS / RFU, ZNF655 / Fold change vs veh, ZNF655 / RFU, FAHD1 / Fold change vs veh, FAHD1 / RFU, BDP1 / Fold change vs veh, BDP1 / RFU, LRRCC1 / Fold change vs veh, LRRCC1 / RFU, ARID1A / Fold change vs veh, ARID1A / RFU, ZNF146 / Fold change vs veh, ZNF146 / RFU, ZNF330 / Fold change vs veh, ZNF330 / RFU, GPN3 / Fold change vs veh, GPN3 / RFU, C9orf123 / Fold change vs veh, C9orf123 / RFU, N4BP2L2 / Fold change vs veh, N4BP2L2 / RFU, ARFIP1 / Fold change vs veh, ARFIP1 / RFU, FAM179B / Fold change vs veh, FAM179B / RFU, BCL10 / Fold change vs veh, BCL10 / RFU, UHRF1BP1L / Fold change vs veh, UHRF1BP1L / RFU, BET1 / Fold change vs veh, BET1 / RFU, CNOT2 / Fold change vs veh, CNOT2 / RFU, ZNF268 / Fold change vs veh, ZNF268 / Fold change vs veh, ZNF507 / RFU, DGCR2 / Fold change vs veh, DGCR2 / RFU, WDSUB1 / Fold change vs veh, WDSUB1 / Fold change vs veh, HSP90B1 /// MIR3652 / RFU, ADSS / Fold change vs veh, ADSS / RFU, GK / Fold change vs veh, GK / RFU, ZNF148 / Fold change vs veh, ZNF148 / RFU, TAF9 / Fold change vs veh, TAF9 / RFU, SLC1A5 / Fold change vs veh, SLC1A5 / RFU, SLMO2 / Fold change vs veh, SLMO2 / RFU, ABCC4 / Fold change vs veh, ABCC4 / RFU, LOC101060439 /// RAP1B / Fold change vs veh, LOC101060439 /// RAP1B / RFU, RFX7 / Fold change vs veh, RFX7 / RFU, GTPBP10 / Fold change vs veh, GTPBP10 / RFU, CNEP1R1 / Fold change vs veh, CNEP1R1 / RFU, BIVM-ERCC5 /// ERCC5 / Fold change vs veh, BIVM-ERCC5 /// ERCC5 / RFU, ILF3 / Fold change vs veh, ILF3 / RFU 11762660_at / Fold change /veh 11762660_at / RFU VCAN (11757783_s_at) / Fold change /veh VCAN (11757783_s_at) / RFU DDX43 (11728927_at) / Fold change /veh DDX43 (11728927_at) / RFU KRT8 (11758188_x_at) / Fold change /veh KRT8 (11758188_x_at) / RFU NKD1 (11759106_at) / Fold change /veh NKD1 (11759106_at) / RFU SRD5A1 (11742802_a_at) / Fold change /veh SRD5A1 (11742802_a_at) / RFU TPSAB1 /// TPSB2 (11721975_s_at) / Fold change /veh TPSAB1 /// TPSB2 (11721975_s_at) / RFU GSTM3 (11746129_a_at) / Fold change /veh GSTM3 (11746129_a_at) / RFU IL23R (11737362_x_at) / Fold change /veh IL23R (11737362_x_at) / RFU TMEM51 (11727254_a_at) / Fold change /veh TMEM51 (11727254_a_at) / RFU PIWIL2 (11732686_x_at) / Fold change /veh PIWIL2 (11732686_x_at) / RFU ORM1 (11744905_x_at) / Fold change /veh ORM1 (11744905_x_at) / RFU CCDC152 (11743942_at) / Fold change /veh CCDC152 (11743942_at) / RFU ECM1 (11717891_a_at) / Fold change /veh ECM1 (11717891_a_at) / RFU IL23R (11748794_a_at) / Fold change /veh IL23R (11748794_a_at) / RFU TNFAIP8L3 (11732012_x_at) / Fold change /veh TNFAIP8L3 (11732012_x_at) / RFU MBOAT4 (11741988_at) / Fold change /veh MBOAT4 (11741988_at) / RFU 11764193_at / Fold change /veh 11764193_at / RFU TMEM53 (11763286_at) / Fold change /veh TMEM53 (11763286_at) / RFU MAGEB2 (11727129_at) / Fold change /veh MAGEB2 (11727129_at) / RFU TMEM200A (11744735_a_at) / Fold change /veh TMEM200A (11744735_a_at) / RFU CCDC152 (11751479_a_at) / Fold change /veh CCDC152 (11751479_a_at) / RFU FAM211A (11726209_a_at) / Fold change /veh FAM211A (11726209_a_at) / RFU RGS16 (11746705_a_at) / Fold change /veh RGS16 (11746705_a_at) / RFU VCAN (11755009_s_at) / Fold change /veh VCAN (11755009_s_at) / RFU RHOB (11743442_s_at) / Fold change /veh RHOB (11743442_s_at) / RFU RGS16 (11720943_a_at) / Fold change /veh RGS16 (11720943_a_at) / RFU RGS16 (11720944_at) / Fold change /veh RGS16 (11720944_at) / RFU, VPS4B / Fold change vs veh, VPS4B / RFU, CREB1 / Fold change vs veh, CREB1 / RFU, DNAJC13 / Fold change vs veh, DNAJC13 / RFU, GNAQ / Fold change vs veh, GNAQ / RFU, CDK5R1 / Fold change vs veh, CDK5R1 / RFU, ZRANB3 / Fold change vs veh, ZRANB3 / RFU, CUL4A / Fold change vs veh, CUL4A / RFU, CCNY / Fold change vs veh, CCNY / RFU, UFL1 / Fold change vs veh, UFL1 / RFU, COG3 / Fold change vs veh, COG3 / RFU, DIAPH2 / Fold change vs veh, DIAPH2 / RFU, SKA2 / Fold change vs veh, SKA2 / RFU, AFF3 / Fold change vs veh, AFF3 / RFU, LMF1 / Fold change vs veh, LMF1 / RFU, IPO11 / Fold change vs veh, IPO11 / RFU, DFFB / Fold change vs veh, DFFB / RFU, FOXP1 / Fold change vs veh, FOXP1 / RFU, CARD8 / Fold change vs veh, CARD8 / RFU, STRN3 / Fold change vs veh, STRN3 / RFU, ADK / Fold change vs veh, ADK / RFU, RASSF2 / Fold change vs veh, RASSF2 / RFU, WIPF1 / Fold change vs veh, WIPF1 / RFU, LARP1B / Fold change vs veh, LARP1B / RFU, RASA1 / Fold change vs veh, RASA1 / RFU, RB1 / Fold change vs veh, RB1 / RFU, PPFIA1 / Fold change vs veh, PPFIA1 / RFU, MAT2A / Fold change vs veh, MAT2A / RFU, CCT5 / Fold change vs veh, CCT5 / RFU, WDR92 / Fold change vs veh, WDR92 / RFU, CUX1 / Fold change vs veh, CUX1 / RFU, TTC7A / Fold change vs veh, TTC7A / RFU, TMEM135 / Fold change vs veh, TMEM135 / RFU, DEPTOR / Fold change vs veh, DEPTOR / RFU, CPM / Fold change vs veh, CPM / RFU, DNAJB6 / Fold change vs veh, DNAJB6 / RFU, CACNA2D3 / Fold change vs veh, CACNA2D3 / RFU, DTX4 / Fold change vs veh, DTX4 / RFU, TFCP2 / Fold change vs veh, TFCP2 / RFU, GMCL1 /// GMCL1P1 / Fold change vs veh, GMCL1 /// GMCL1P1 / RFU, AEBP2 / Fold change vs veh, AEBP2 / RFU, SNHG1 /// SNORD22 /// SNORD25 /// SNORD26 /// SNORD27 /// SNORD28 /// SNORD29 /// SNORD31 / Fold change vs veh, SNHG1 /// SNORD22 /// SNORD25 /// SNORD26 /// SNORD27 /// SNORD28 /// SNORD29 /// SNORD31 / Fold change (Aza/veh), C12orf56 (ProbeSet 11735607_a_at) / Fold change (ACY-1035/veh), C12orf56 (ProbeSet 11735607_a_at) / Fold change (Aza/veh), FGFR1OP (ProbeSet 11751329_s_at) / Fold change (ACY-1035/veh), FGFR1OP (ProbeSet 11751329_s_at) / Fold change (Aza/veh), VPS36 (ProbeSet 11739960_a_at) / Fold change (ACY-1035/veh), VPS36 (ProbeSet 11739960_a_at) / RFU SYPL1 (11715823_x_at) / Fold change /veh SYPL1 (11715823_x_at) / RFU IGFBP7 (11715501_s_at) / Fold change /veh IGFBP7 (11715501_s_at) / RFU REEP3 (11722064_at) / Fold change /veh REEP3 (11722064_at) / RFU IGLL1 (11728026_x_at) / Fold change /veh IGLL1 (11728026_x_at): dose or concentration left out as unconfirmed
Settings: ProbeSet 11716865_a_at; LIST B

## Nc1ccc(-c2cccs2)cc1NC(=O)c1ccc2c(c1)cc(C1CC1)n2CCN1CCOCC1 [ACY-1035]
  Fold change vs veh, SLC1A5: 0.85
